Results published in patent publication US12116356B2, “N-heterocyclic five-membered ring-containing capsid protein assembly inhibitor, pharmaceutical composition thereof, and use thereof” (CHIA TAI TIANQING PHARMACEUTICAL GROUP CO., LTD., priority 2018, dated 2024).

Experiments:
HBV DNA in HepAD38 cells = experiment: In vitro cell HBV DNA inhibitory activity (anti-HBV activity) in HepAD38 cells; assay type: cell-based; conditions: Hepatitis B virus, 144 h; anti-HBV activity in HepAD38 cells, 6 days treatment, intracellular capsid HBV DNA by qPCR; read-out: EC50
Experimental: A bottle of HepG2.2.15 or HepAD38 cells in good exponential growth state was taken, washed once by adding 5 mL PBS, and then thereto was added 3 mL trypsin. After digesting at room temperature for 5 min, 2 mL trypsin was discarded, and then the sample was placed in a cell culture incubator and digested for 10 min. The cells were taken out from time to time and observed under a microscope (whether the cells were individually round and there was no adhesion between the cells). 10 mL complete medium was added to terminate the digestion. After pipetting into a single cell suspension, 10 μL of the cell suspension was taken out for cell counting with a cell counter, and then diluted with a complete medium and adjusted to a cell density of 1*10^5 cells/mL. Then the cell suspension was seeded at 1 mL/well in a 24-well plate with a multi-channel pipette (the 24-well plate was coated with 50 μg/mL Collagen I solution in advance), and cultured in a constant temperature CO2 incubator for 48 h.
Different compounds dissolved in DMSO were subjected to two-fold gradient dilution (10 concentrations in total) with complete medium. The compound was added, and fresh medium containing the compound was used to replace the spent medium every 72 hours. The cells were treated with the compound for 6 days. After the supernatant was siphoned off, 300 μL lysate (10 mM Tris-HCl, 1 mM EDTA, and 1% NP-40) was added to each well. After lysing at room temperature for 10 min, DNA was extracted, and HBV DNA in the intracellular viral capsid was measured by real-time fluorescence quantitative PCR. The inhibition rate was calculated based on the Ct value, and the EC50 value was calculated by the four-parameter method.

[1] = In vivo pharmacokinetics (PK) study in mice; conditions: ICR mice, po 30 mg/kg
Experimental: ICR mice, weighing 18-20 g, were randomly divided into groups of three mice each after 3 to 5 days' acclimatization, and a series of the compounds were administered intragastrically to each group at a dose of 30 mg/kg. The test animals (ICR mice) were fasted for 12 hours before the administration and fed 4 hours after the administration. They were free to access water before and after the experiment. After the intragastric administration, about 0.1 mL of blood was collected from the orbits. Within 30 minutes after anticoagulation with EDTA-K2, the plasma was separated by centrifugation at 4° C. and 4000 rpm for 10 minutes. Immediately after collecting all plasma, it was stored at −20° C. for testing. 20 μL of the plasma sample to be tested and standard curve sample were pipetted, and then thereto was added 200 μL of an acetonitrile solution containing an internal standard (diazepam 20 mg/mL). The resulting mixture was oscillated and mixed uniformly for 5 min, and then centrifugated at 12000 rpm for 10 min. 75 μL supernatant was pipetted, and 75 μL ultrapure water was added thereto for dilution, and mixed evenly. 1 μL of the resulting solution was pipetted for LC/MS/MS determination.

Cc1c(C(=O)Nc2ccc(F)c(C#N)c2)c(C)n(C)c1C(=O)C(=O)NC(C)(C)C [Example 13, 5-(2-(tert-butylamino)-2-oxoacetyl)-N-(3-cyano-4-fluorophenyl)-1,2,4-trimethyl-1H-pyrrole-3-carboxamide]
EC50 (HBV DNA in HepAD38 cells): < 0.01 µM
Liver AUC(0-6 h) ([1]; 0.25 h, 1 h, 6 h): 5834 ng/g
Plasma AUC(0-6 h) ([1]; blood at 0.25 h, 1 h, 6 h): 1759 ng/mL
Kp ([1]; mouse, liver/blood, AUC(0-6 h), read-out: Liver to blood ratio): 3.32
